Test results reported in US20230303581A1, “ORALLY BIOAVAILABLE, BRAIN-PENETRANT COMPOUND WITH SELECTIVITY FOR THE CANNABINOID TYPE 2 RECEPTOR WITH POTENTIAL USE TOWARDS VISCERAL PAIN MANAGEMENT AND NEURODEGENERATIVE DISORDERS” (University of Mississippi, priority 2022, published 2023).
“And” between values parts separate entries of the source, which are not always exact repeats. Equal entries are not always repeated. “Also recorded” adds a separate entry of the source. Where two headings read alike, the source gives them in different places. Blank lines part the entries; values can stand above or below the molecule they belong to.

Columns and labels:
human CB1 receptors = human CB1 receptors (Homo sapiens (Human), UniProt P21554); assay: Cannabinoid receptor binding (displacement) assay, CB1; conditions: 10 μM compound
Chain of human CB1 receptors (P21554 whole entry): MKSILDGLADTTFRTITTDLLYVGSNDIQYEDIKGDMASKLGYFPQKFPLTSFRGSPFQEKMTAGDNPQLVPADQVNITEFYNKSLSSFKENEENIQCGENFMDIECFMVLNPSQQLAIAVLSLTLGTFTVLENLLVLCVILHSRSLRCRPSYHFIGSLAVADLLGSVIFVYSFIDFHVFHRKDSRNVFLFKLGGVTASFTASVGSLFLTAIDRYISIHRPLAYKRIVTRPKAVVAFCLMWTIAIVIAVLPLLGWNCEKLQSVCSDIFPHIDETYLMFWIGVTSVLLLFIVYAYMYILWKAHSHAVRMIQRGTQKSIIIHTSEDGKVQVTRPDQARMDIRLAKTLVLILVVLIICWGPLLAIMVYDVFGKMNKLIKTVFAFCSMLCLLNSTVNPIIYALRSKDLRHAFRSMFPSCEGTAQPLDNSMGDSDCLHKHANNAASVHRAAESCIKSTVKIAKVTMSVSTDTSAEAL
Experimental: (§1) The affinities of the compounds for CB1 and CB2 receptors were examined using displacement assays, as previously described. Briefly, cell membranes from CHO cells expressing human CB1 or human CB2 receptors were isolated using differential centrifugation. Test compounds reconstituted in DMSO and were incubated with the isolated membrane in binding buffer (50 mM Tris-HCl, 1 mM EDTA, 3 mM MgCl2, 5 mg/mL BSA, pH 7.4) along with 2.5 nM [^3H]CP-55,940. Total binding was assessed in the presence of equal concentration of DMSO, while non-specific binding was determined in the presence of 10 μM CP-55,940, and background binding was determined in wells lacking membrane. Following incubation at 30° C. for 60 min, the binding reactions were terminated by vacuum filtration through Whatman GF/C filters. The filters were then washed twice with ice-cold buffer (50 mM Tris-HCl, 1 mg/mL BSA). Liquid scintillation cocktail was added to each well and the total tritiated counts per minute were analyzed using a TopCount scintillation counter. Background counts were subtracted from all wells and the percent displacement from total binding was calculated.
(§2) The compounds were initially screened at 10 μM concentrations. If they produced at least ±30% displacement of the radioligand, then full competition curves were constructed. Ki values were calculated using GraphPad Prism (San Diego, CA, USA) and Kd values determined using a 1 site fit. All assays were run in technical and biological replicates so that the n=5-6. PK Evaluation in CD-1 Mice
(§3) The CB1/CB2 receptor binding activities of analogs 4a-4q were assessed via radioactivity-based competitive binding assays using [^3H]CP55,940, an extensively studied radioligand that is frequently used for cannabinoid assays. […] In preliminary screening, all 17 synthetic PBD compounds (4a-4q) were subjected to in vitro CB1 and CB2 binding assays at a single concentration of 10 μM. […] Therefore, the most promising ligands (4k and 4q) were selected for assessment in full competition curves against CB1 and CB2.

human CB2 receptors = human CB2 receptors (Homo sapiens (Human), UniProt P34972); assay: Cannabinoid receptor binding (displacement) assay, CB2; conditions: for Displacement of [3H]CP-55,940 from CB2: 10 μM compound; for Ki: CB2, full competition curves
Chain of human CB2 receptors (P34972 whole entry): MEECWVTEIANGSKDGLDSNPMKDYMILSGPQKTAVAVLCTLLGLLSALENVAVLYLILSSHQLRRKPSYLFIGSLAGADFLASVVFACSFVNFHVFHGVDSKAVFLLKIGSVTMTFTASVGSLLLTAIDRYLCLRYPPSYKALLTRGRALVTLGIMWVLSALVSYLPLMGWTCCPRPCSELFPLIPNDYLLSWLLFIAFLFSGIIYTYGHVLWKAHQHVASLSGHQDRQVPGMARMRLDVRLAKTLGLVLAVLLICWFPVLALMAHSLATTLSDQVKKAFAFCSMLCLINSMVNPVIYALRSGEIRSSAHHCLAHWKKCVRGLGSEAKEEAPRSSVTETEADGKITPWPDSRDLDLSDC
Experimental: as §1, §2, §3

[1] = PK evaluation in CD-1 mice (plasma and tissue concentrations); format: in vivo
Experimental: The primary stock solutions of 4k and phenacetin (internal standard, IS) were prepared in methanol at a concentration of 1.0 mg/mL. Working solutions of calibration standards and quality control (QC) samples were prepared by dilution with methanol and stored at −20° C. A working stock of the IS solution (20 ng/mL) was prepared in methanol and stored at −20° C.
Chromatography was performed on an Acquity™ UPLC system (Waters Corp, Milford, MA, USA) with an autosampler temperature at 10° C. Waters Acquity UPLC® HSS C18 column (3.0×50 mm, 1.8 μm particle size) was used for chromatographic separation with linear gradient elution consisting of (A) 90% acetonitrile and (B) 10% 0.2% formic acid in Milli-Q water as mobile phases. The flow rate was set at 0.30 mL/min, and the injection volume was 2 μL.
An Acquity Tandem Quadrupole Mass Detector (Xevo TQ-S; Waters Corp, Milford, MA, USA) in positive electrospray ionization mode was used for mass spectrometric detection. For collision-induced dissociation, argon was used as collision gas. The cone voltage and collision energy were set at 60 V and 34 V for 4k and 46 V and 26 V for the IS, respectively. Quantification was performed using the monitoring of multiple reaction monitoring (MRM) of following transitions: m/z 409.0/220.9 for 4k and m/z 180.0/92.7 for IS. Retention times of 4k and IS were 2.85 and 1.81 min, respectively.
A simple protein precipitation method was followed for extraction of 4k from mice plasma. To an aliquot of 50 μL of plasma or tissue (brain, liver, or kidney) samples, IS solution (5 μL of 20 ng/mL) was added and mixed for 15 s on a cyclomixer (Thermo Scientific, Indianapolis, IN, USA). After precipitation with 200 μL of acetonitrile, the mixture was vortexed for 2 min, followed by centrifugation for 10 min at 14,000 rpm on an accuSpin Micro 17R (Fisher Scientific, Suwanee, GA, USA) at 5° C. An aliquot of ˜150 μL of clear supernatant was transferred into vials and 2 μL was injected onto LC-MS/MS system for analysis.
Male CD-1 mice (N=48) were obtained from Envigo (St. Louis, MO, USA) and maintained on a 12:12 h reversed dark/light cycle (lights off at 07:00 h) with ad libitum access to food and water. Following a ˜4 h fast, animals were randomly assigned to one of two groups. Group I and II animals (n=24/group, weight range 25-30 g) received compound 4k (5 mg/kg) orally (in the form of a solution, prepared using 10% absolute alcohol, 10% cremophor, and 80% Milli-Q water) or intravenously (i.v., using solution formulation comprising 10% absolute alcohol, 10% cremophor, and 80% normal saline), respectively. At 0.5, 1, 2, 4, 8, and 24 h post administration, animals were euthanized, blood was collected in K2. EDTA-containing polypropylene tubes and, tissues were collected (brain, liver, and kidney). Plasma was harvested by centrifuging the blood using Eppendorf 5430R Centrifuge (Germany) at 5000 rpm for 5 min and stored frozen at −80° C. until analysis.
Brain, liver, and kidney tissues were homogenized in separate 15 mL round-bottom screw-capped vials in phosphate buffered saline (5 volumes of each tissue mass) with a homogenizer (Polytron®) and stored at −80° C. until analysis. Plasma or tissue homogenates (50 μL) were spiked with IS and processed as mentioned in sample preparation section.
Plasma and tissue concentration and time data of compound 4k were analyzed by a non-compartmental method using WinNonlin Version 5.3 (Pharsight Corporation, Mountain View, CA, USA).

[2] = Stability studies under physiological pH; format: physicochemical; conditions: 4k compared to 4q; data not reported
mice [3] = assay: Conditioned place preference test; format: in vivo; conditions: FIG. 4
Text: Conditioned place preference testing is used to assess a compound's rewarding effects in order to gauge potential abuse liability. Mice are “conditioned” to associate distinctly lighted/colored/textured chambers with a rewarding drug (e.g., opioid) or no drug. If the mice sense a rewarding effect of the drug, they will prefer to occupy the chamber associated with that drug. FIG. 4 presents the results of a conditioned place preference test for 3 groups of mice (i.e., vehicle, oxycodone treated, and compound 4k treated).

mice [4] = assay: Acetic acid-induced writhing test; format: in vivo
Text: Acetic acid-induced writhing is widely used for assessing analgesic effects against inflammatory pain of peripheral origin.

[5] = male, CD-1, mouse, intravenous 5 mg/kg, brain
[6] = male, CD-1, mouse, intravenous 5 mg/kg, kidney
[7] = male, CD-1, mouse, intravenous 5 mg/kg, liver
[8] = male, CD-1, mouse, intravenous 5 mg/kg, plasma
[9] = male, CD-1, mouse, oral 5 mg/kg, brain
[10] = male, CD-1, mouse, oral 5 mg/kg, kidney
[11] = male, CD-1, mouse, oral 5 mg/kg, liver
[12] = male, CD-1, mouse, oral 5 mg/kg, plasma

Molecule: (S,E)-11-[(Benzo[b]thiophen-2-ylmethylene)hydrazono]-7-bromo-pyrrolo[2,1-c][1,4]Benzodiazepine [Compound 4i]
Displacement of [3H]CP-55,940 from CB1 (human CB1 receptors): 49.82%
Displacement of [3H]CP-55,940 from CB2 (human CB2 receptors): 36.39%

Molecule: Cn1ccnc1/C=N/N=C1/Nc2ccccc2C(=O)N2CCC[C@@H]12 [Compound 4b]
Displacement of [3H]CP-55,940 from CB1 (human CB1 receptors): −13.99%
Displacement of [3H]CP-55,940 from CB2 (human CB2 receptors): −14.48%

Ki (human CB2 receptors): 137 nM
Molecule: O=C1c2ccccc2N/C(=N/N=C/C23CC4CC(CC(C4)C2)C3)[C@@H]2CCCN12 [Compound 4q]

Molecule: O=C1c2ccccc2N/C(=N/N=C/c2ccc[nH]2)[C@@H]2CCCN12 [Compound 4a]
Displacement of [3H]CP-55,940 from CB1 (human CB1 receptors): −3.09%
Displacement of [3H]CP-55,940 from CB2 (human CB2 receptors): −12.50%

Molecule: O=C1c2ccccc2N/C(=N/N=C/c2sc3ccccc3c2Cl)[C@@H]2CCCN12 [Compound 4m]
Displacement of [3H]CP-55,940 from CB1 (human CB1 receptors): 5.22%
Displacement of [3H]CP-55,940 from CB2 (human CB2 receptors): 50.05%

Molecule: (S,E)-11-[(Benzo[b]thiophen-3-ylmethylene)hydrazono]-7-bromo-pyrrolo[2,1-c][1,4]Benzodiazepine [Compound 4j]
Displacement of [3H]CP-55,940 from CB1 (human CB1 receptors): 66.81%
Displacement of [3H]CP-55,940 from CB2 (human CB2 receptors): 65.24%

AUC0-∞ ([1]; intravenous 5 mg/kg, brain): 5685 ng·h/g
AUC0-∞ ([1]; intravenous 5 mg/kg, kidney): 13272 ng·h/g
AUC0-∞ ([1]; intravenous 5 mg/kg, liver): 19991 ng·h/g
clearance as share of hepatic blood flow in mice ([1]; intravenous 5 mg/kg, plasma): 26%
clearance [1, 5]: 15.7 ± 2.31 mL/min/kg
half-life [1, 5]: 6.54 ± 1.38 h
clearance [1, 6]: 6.38 ± 0.49 mL/min/kg
half-life [1, 6]: 10.2 ± 0.49 h
clearance [1, 7]: 4.28 ± 0.38 mL/min/kg
half-life [1, 7]: 9.26 ± 0.67 h
Vd [1, 8]: 14.3 ± 3.11 L/kg
clearance [1, 8]: 23.5 ± 5.35 mL/min/kg
half-life [1, 8]: 6.91 ± 0.15 h
Cmax ([1]; male, CD-1, mouse, intravenous 5 mg/kg, plasma, read-out: Cmax Or C0): 4340 ng/mL
Tmax [1, 9]: 1.25 ± 0.44 h
half-life [1, 9]: 22.9 ± 3.73 h
Cmax ([1]; male, CD-1, mouse, oral 5 mg/kg, brain, read-out: Cmax): 602 ± 44.8 ng/g
bioavailability ([1]; male, CD-1, mouse, oral 5 mg/kg, brain, read-out: F (apparent oral bioavailability)): 43%
Tmax [1, 10]: 0.75 ± 0.15 h
half-life [1, 10]: 16.7 ± 1.61 h
Cmax ([1]; male, CD-1, mouse, oral 5 mg/kg, kidney, read-out: Cmax): 795 ± 22.6 ng/g
bioavailability ([1]; male, CD-1, mouse, oral 5 mg/kg, kidney, read-out: F (apparent oral bioavailability)): 37 ± 3.78%
Tmax [1, 11]: 0.75 ± 0.15 h
half-life [1, 11]: 13 ± 0.97 h
Cmax ([1]; male, CD-1, mouse, oral 5 mg/kg, liver, read-out: Cmax): 1890 ± 282 ng/g
bioavailability ([1]; male, CD-1, mouse, oral 5 mg/kg, liver, read-out: F (apparent oral bioavailability)): 32 ± 2.86%
AUC(0-inf) [1, 12]: 739 ± 6.75 ng·h/mL
Tmax [1, 12]: 0.88 ± 0.13 h
half-life [1, 12]: 16.4 ± 1.66 h
Cmax ([1]; male, CD-1, mouse, oral 5 mg/kg, plasma, read-out: Cmax): 198 ± 11.5 ng/mL
bioavailability ([1]; male, CD-1, mouse, oral 5 mg/kg, plasma, read-out: F (bioavailability)): 18 ± 2.43%
AUC0-∞ ([1]; oral 5 mg/kg, kidney): 5223 ± 44.75 ng·h/g and 5223 ng·h/g
AUC0-∞ ([1]; oral 5 mg/kg, liver): 6423 ± 571 ng·h/g and 6423 ng·h/g
Ki (human CB2 receptors): 146 nM
Molecule: O=C1c2ccc(Cl)cc2N/C(=N/N=C/c2cc3ccccc3s2)[C@@H]2CCCN12 [Compound 4k]
tolerance under physiological pH [2]: better tolerance
place preference (rewarding effect, abuse liability) (mice [3]): no significant rewarding effects; also recorded: no such preference
number writhes per 5 min (mice [4]; FIG. 3A, 4k 5 mg/kg versus vehicle): lower
total frequency of writhes over the entire experiment (mice [4]; FIG. 3B, 30 min): lowest
writhing over 30 minutes (mice [4]; oxycodone 3 mg/kg, compound 4k 5 mg/kg, versus vehicle): attenuate writhing; also recorded: significantly less writhing

Molecule: Nc1ncc(/C=N/N=C2/Nc3ccccc3C(=O)N3CCC[C@@H]23)s1 [Compound 4f]
Displacement of [3H]CP-55,940 from CB1 (human CB1 receptors): 1.75%
Displacement of [3H]CP-55,940 from CB2 (human CB2 receptors): 3.72%

Molecule: (S,E)-11-[(Thiazol-5-ylmethylene)hydrazono]-pyrrolo[2,1-c][1,4] Benzodiazepine [Compound 4c]
Displacement of [3H]CP-55,940 from CB1 (human CB1 receptors): 0.25%
Displacement of [3H]CP-55,940 from CB2 (human CB2 receptors): 3.06%
